Measured values: ChEMBL document CHEMBL1201862, “PubChem BioAssay data set” (2004)
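Test compounds were applied to cells in 96-well plates for 48 hours at 5 doses. GI50 marks 50% less growth.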 Activity calls are given as the source filed them. Rule as the data show it: active = GI50 up to about 1.1 µM and inactive = higher. Square brackets hold non-standard residues; d marks the D form. Peptide text beside a SMILES is read from it. * marks the point of attachment. Boc = CC(C)(C)OC(=O)*; Lac = C[CH](O)C(=O)O; OBn = c1ccc(CO*)cc1

Assays:
Test in all cases: NCI tumour cell line growth inhibition, 48 h
TK-10 = test system: TK-10
SNB-19 = test system: SNB-19
786-0 = test system: 786-0
U-251 = test system: U-251
UO-31 = test system: UO-31
OVCAR-4 = test system: OVCAR-4
UACC-62 = test system: UACC-62
NCI/ADR-RES = test system: NCI/ADR-RES
NCI-H522 = test system: NCI-H522
Malme-3M = test system: Malme-3M
IGROV-1 = test system: IGROV-1
SK-MEL-28 = test system: SK-MEL-28
SF-539 = test system: SF-539
K562 = test system: K562
DU-145 = test system: DU-145
NCI-H23 = test system: NCI-H23
ACHN = test system: ACHN
KM12 = test system: KM12
NCI-H460 = test system: NCI-H460
CCRF-CEM = test system: CCRF-CEM
SK-OV-3 = test system: SK-OV-3
EKVX = test system: EKVX
HCT-15 = test system: HCT-15
SNB-75 = test system: SNB-75
CAKI-1 = test system: CAKI-1
RPMI-8226 = test system: RPMI-8226
A498 = test system: A498
A549 = test system: A549
SR = test system: SR
PC-3 = test system: PC-3
SW-620 = test system: SW-620
OVCAR-3 = test system: OVCAR-3
SN12C = test system: SN12C
BT-549 = test system: BT-549
HOP-62 = test system: HOP-62
HCT-116 = test system: HCT-116
SK-MEL-2 = test system: SK-MEL-2
OVCAR-8 = test system: OVCAR-8
MCF7 = test system: MCF7
SK-MEL-5 = test system: SK-MEL-5
LOX IMVI = test system: LOX IMVI
COLO 205 = test system: COLO 205
MOLT-4 = test system: MOLT-4
MDA-N = test system: MDA-N
HT-29 = test system: HT-29
MDA-MB-435 = test system: MDA-MB-435
SF-268 = test system: SF-268
RXF 393 = test system: RXF 393
T47D = test system: T47D
MDA-MB-231 = test system: MDA-MB-231
SF-295 = test system: SF-295
HOP-92 = test system: HOP-92
Hs-578T = test system: Hs-578T
OVCAR-5 = test system: OVCAR-5
HL-60 = test system: HL-60
UACC-257 = test system: UACC-257
HCC 2998 = test system: HCC 2998
NCI-H226 = test system: NCI-H226
M14 = test system: M14

Measured: GI50

NNC(=O)CC(=O)Nc1ccccc1Cl
inactive: TK-10 > 100 µM | SNB-19 > 100 µM | 786-0 > 100 µM | U-251 > 100 µM | UO-31 > 100 µM | OVCAR-4 > 100 µM | UACC-62 > 100 µM | NCI/ADR-RES > 100 µM | NCI-H522 > 100 µM | Malme-3M > 100 µM | IGROV-1 > 100 µM | SK-MEL-28 > 100 µM | SF-539 > 100 µM | K562 > 100 µM | DU-145 > 100 µM | NCI-H23 > 100 µM | ACHN > 100 µM | KM12 > 100 µM | NCI-H460 > 100 µM | CCRF-CEM > 100 µM | SK-OV-3 > 100 µM | EKVX > 100 µM | SNB-75 > 100 µM | CAKI-1 > 100 µM | RPMI-8226 > 100 µM | A498 > 100 µM | A549 > 100 µM | SR > 100 µM | PC-3 > 100 µM | SW-620 > 100 µM | OVCAR-3 > 100 µM | SN12C > 100 µM | BT-549 > 100 µM | HOP-62 > 100 µM | HCT-116 > 100 µM | SK-MEL-2 > 100 µM | OVCAR-8 > 100 µM | MCF7 > 100 µM | SK-MEL-5 > 100 µM | LOX IMVI > 100 µM | COLO 205 > 100 µM | MOLT-4 > 100 µM | MDA-N > 100 µM | HT-29 > 100 µM | MDA-MB-435 > 100 µM | SF-268 > 100 µM | RXF 393 > 100 µM | T47D > 100 µM | MDA-MB-231 > 100 µM | SF-295 > 100 µM | HOP-92 > 100 µM | Hs-578T > 100 µM | OVCAR-5 > 100 µM | HL-60 > 100 µM | UACC-257 > 100 µM
> 100 µM: HCT-15

Nc1ccn(C2OC(CO[PH](=O)OC3C(CO[PH](=O)OC4C(CO[PH](=O)OC5C(CO[PH](=O)OC6C(CO[PH](=O)OC7C(CO[PH](=O)OC8C(CO[PH](=O)OC9C(CO[PH](=O)OC%10C(CO[PH](=O)OC%11C(CO)OC(n%12ccc(N)nc%12=O)C%11(F)F)OC(n%11ccc(N)nc%11=O)C%10(F)F)OC(n%10ccc(N)nc%10=O)C9(F)F)OC(n9ccc(N)nc9=O)C8(F)F)OC(n8ccc(N)nc8=O)C7(F)F)OC(n7ccc(N)nc7=O)C6(F)F)OC(n6ccc(N)nc6=O)C5(F)F)OC(n5ccc(N)nc5=O)C4(F)F)OC(n4ccc(N)nc4=O)C3(F)F)C(O)C2(F)F)c(=O)n1 (centres undefined)
active: SNB-19 0.0259 µM | U-251 0.0373 µM | HCC 2998 0.0805 µM | UO-31 0.0213 µM | UACC-62 0.0466 µM | NCI/ADR-RES 0.051 µM | Malme-3M 0.391 µM | IGROV-1 0.912 µM | SK-MEL-28 0.594 µM | SF-539 0.0112 µM | DU-145 0.0109 µM | NCI-H23 0.0423 µM | ACHN 0.00533 µM | NCI-H460 0.0208 µM | CCRF-CEM 0.0172 µM | SK-OV-3 0.979 µM | SNB-75 0.0254 µM | CAKI-1 0.0316 µM | RPMI-8226 0.0582 µM | A498 0.114 µM | A549 0.016 µM | SR 0.0183 µM | SW-620 0.577 µM | SN12C 0.0661 µM | BT-549 0.0661 µM | HOP-62 0.0581 µM | HCT-116 0.0134 µM | OVCAR-8 0.0156 µM | MCF7 0.0103 µM | LOX IMVI 0.0418 µM | COLO 205 0.741 µM | MOLT-4 0.0333 µM | MDA-N 0.0442 µM | HT-29 0.112 µM | MDA-MB-435 0.0526 µM | SF-268 0.0285 µM | T47D 0.553 µM | SF-295 0.0697 µM | HOP-92 0.155 µM | OVCAR-5 0.111 µM | HL-60 0.0193 µM | UACC-257 0.34 µM
inactive: TK-10 3.03 µM | OVCAR-4 10 µM | NCI-H522 1.43 µM | K562 1.49 µM | NCI-H226 9.44 µM | KM12 5.38 µM | EKVX 5.46 µM | PC-3 5.5 µM | OVCAR-3 17.1 µM | SK-MEL-2 2.18 µM | SK-MEL-5 1.73 µM | MDA-MB-231 1.4 µM | Hs-578T 2.22 µM
0.442 µM: HCT-15

CN(Cc1cnc2nc(N)nc(N)c2n1)c1ccc(C(=O)NCCS(=O)(=O)O)cc1
> 100 µM: HCT-15
inactive: TK-10 > 100 µM | SNB-19 > 100 µM | 786-0 > 100 µM | U-251 > 100 µM | HCC 2998 > 100 µM | UO-31 > 100 µM | OVCAR-4 > 100 µM | UACC-62 > 100 µM | NCI/ADR-RES > 100 µM | NCI-H522 > 100 µM | Malme-3M > 100 µM | IGROV-1 > 100 µM | SK-MEL-28 > 100 µM | SF-539 > 100 µM | K562 > 100 µM | M14 > 100 µM | DU-145 > 100 µM | NCI-H226 > 100 µM | NCI-H23 > 100 µM | ACHN > 100 µM | KM12 > 100 µM | NCI-H460 > 100 µM | SK-OV-3 > 100 µM | EKVX > 100 µM | SNB-75 > 100 µM | CAKI-1 > 100 µM | RPMI-8226 > 100 µM | A498 > 100 µM | A549 > 100 µM | SR 67.6 µM | PC-3 > 100 µM | SW-620 > 100 µM | OVCAR-3 > 100 µM | SN12C > 100 µM | BT-549 > 100 µM | HOP-62 > 100 µM | HCT-116 91.6 µM | SK-MEL-2 > 100 µM | OVCAR-8 > 100 µM | MCF7 > 100 µM | SK-MEL-5 > 100 µM | LOX IMVI > 100 µM | COLO 205 > 100 µM | MOLT-4 > 100 µM | MDA-N > 100 µM | HT-29 > 100 µM | MDA-MB-435 > 100 µM | SF-268 > 100 µM | T47D > 100 µM | MDA-MB-231 > 100 µM | SF-295 > 100 µM | Hs-578T > 100 µM | OVCAR-5 > 100 µM | HL-60 > 100 µM | UACC-257 > 100 µM

CC(OC(=O)C(Cc1ccccc1)NC(=O)C(Cc1ccccc1)NC(=O)OC(C)(C)C)C(=O)OCc1ccccc1 (stereo not drawn) (Boc-Phe-Phe-[Lac]-OBn; configuration not given here)
inactive: SNB-19 > 100 µM | U-251 > 100 µM | HCC 2998 > 100 µM | UO-31 > 100 µM | UACC-62 > 10 µM | NCI/ADR-RES > 100 µM | NCI-H522 > 100 µM | Malme-3M > 100 µM | IGROV-1 > 100 µM | SK-MEL-28 > 100 µM | K562 > 100 µM | M14 87.1 µM | DU-145 > 100 µM | NCI-H226 > 100 µM | NCI-H23 > 100 µM | KM12 > 100 µM | NCI-H460 > 100 µM | CCRF-CEM > 100 µM | SK-OV-3 > 100 µM | SNB-75 93.1 µM | CAKI-1 > 100 µM | RPMI-8226 94 µM | SR > 100 µM | PC-3 > 100 µM | OVCAR-3 > 100 µM | SN12C > 100 µM | BT-549 > 100 µM | HOP-62 > 100 µM | HCT-116 > 100 µM | SK-MEL-2 > 100 µM | OVCAR-8 > 100 µM | MCF7 17.8 µM | SK-MEL-5 > 100 µM | COLO 205 > 100 µM | MOLT-4 > 100 µM | MDA-N > 100 µM | MDA-MB-435 > 100 µM | RXF 393 > 100 µM | T47D > 100 µM | MDA-MB-231 > 100 µM | SF-295 > 100 µM | HOP-92 > 100 µM | Hs-578T > 100 µM | OVCAR-5 > 100 µM | HL-60 > 100 µM
> 100 µM: HCT-15
